According to patent publication US11566007B2, “Ras inhibitors” (Revolution Medicines, Inc., priority 2019, dated 2023):

How the values were obtained:
KRAS G12V = KRAS G12V (Homo sapiens (Human), UniProt P01116+P62937, G12V); test: Ras-Raf (BRAF RBD) disruption / FRET / MOA assay, KRAS G12V; assay type: biochemical; conditions: read-out: IC50* KRAS G12V FRET data
Outline: (§1)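 Ras:RAF disruption was scored as a fall in TR-FRET ratio relative to DMSO. Compound ranged in 3-fold steps over 10 points from 30 μM final; incubation ran 3 h at 25° C, detection antibodies a further 1.5 h. Reported as IC50.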

KRAS G13D = KRAS G13D (Homo sapiens (Human), UniProt P01116+P62937, G13D); test: Ras-Raf (BRAF RBD) disruption / FRET / MOA assay, KRAS G13D; assay type: biochemical; conditions: read-out: IC50* KRAS G13D FRET data
Outline: as §1

K-Ras G13C = K-Ras G13C (Homo sapiens (Human), UniProt P01116+P62937, G13C); test: Ras-Raf (BRAF RBD) disruption / FRET / MOA assay, KRAS G13C; assay type: biochemical; conditions: KRAS G13C; Ras-Raf disruption/FRET/MOA assay; read-out: IC50* KRAS G13C FRET data
Outline: as §1

NCI-H358 (K-Ras G12C) = test: CellTiter-Glo cell viability assay, NCI-H358; assay type: cell-based, human; conditions: Homo sapiens, NCI-H358, 120 h, NCI-H358, 5-day treatment; class symbols; read-out: Additional H358 Cell Viability assay data (K-Ras G12C, IC50)
Outline: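 Viability measured by CellTiter-Glo luminescence on day 5 following direct addition of compound to plated cells. Values expressed as percent of mean DMSO signal; curves fitted with a four-parameter logistic model.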

KRAS WT = KRAS WT (Homo sapiens (Human), UniProt P01116+P62937); test: Ras-Raf (BRAF RBD) disruption / FRET / MOA assay, KRAS WT; assay type: biochemical; conditions: read-out: IC50* KRAS WT FRET data
Outline: as §1

NRAS G12C = NRAS G12C (Homo sapiens (Human), UniProt P01111+P62937, G12C); test: Ras-Raf (BRAF RBD) disruption / FRET / MOA assay, NRAS G12C; assay type: biochemical; conditions: read-out: IC50* NRAS G12C FRET data
Outline: as §1

KRAS G12S = KRAS G12S (Homo sapiens (Human), UniProt P01116+P62937, G12S); test: Ras-Raf (BRAF RBD) disruption / FRET / MOA assay, KRAS G12S; assay type: biochemical; conditions: Ras-Raf disruption/FRET/MOA assay; class symbols; read-out: KRAS G12S FRET data IC50
Outline: as §1

KRAS Q61H = KRAS Q61H (Homo sapiens (Human), UniProt P01116+P62937, Q61H); test: Ras-Raf (BRAF RBD) disruption / FRET / MOA assay, KRAS Q61H; assay type: biochemical; conditions: Ras-Raf disruption/FRET/MOA assay; class symbols; read-out: KRAS Q61H FRET data IC50
Outline: (§2)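 TR-FRET disruption of nucleotide-loaded Ras binding to BRAF RBD via compound-driven ternary complex with cyclophilin A. Compound as 10-point 3-fold series from 30 μM final, 3 h at 25° C, then anti-His Eu-W1024 (10 nM) and anti-GST allophycocyanin (50 nM) for 1.5 h. IC50 from decreased FRET ratio versus DMSO.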

K-Ras G12C = K-Ras G12C (Homo sapiens (Human), UniProt P01116+P62937, G12C); test: Ras-Raf (BRAF RBD) disruption / FRET / MOA assay, KRAS G12C; assay type: biochemical; conditions: KRAS G12C; Ras-Raf disruption/FRET/MOA assay; read-out: IC50* KRAS G12C FRET data
Outline: as §1

NRAS Q61R = NRAS Q61R (Homo sapiens (Human), UniProt P01111+P62937, Q61R); test: Ras-Raf (BRAF RBD) disruption / FRET / MOA assay, NRAS Q61R; assay type: biochemical; conditions: NRAS Q61R; Ras-Raf disruption/FRET/MOA assay; read-out: IC50* NRAS Q61R FRET data
Outline: as §2

NRAS WT = NRAS WT (Homo sapiens (Human), UniProt P01111+P62937); test: Ras-Raf (BRAF RBD) disruption / FRET / MOA assay, NRAS WT; assay type: biochemical; conditions: read-out: IC50* NRAS WT FRET data
Outline: as §2

KRAS G12D = KRAS G12D (Homo sapiens (Human), UniProt P01116+P62937, G12D); test: Ras-Raf (BRAF RBD) disruption / FRET / MOA assay, KRAS G12D; assay type: biochemical; conditions: Ras-Raf disruption/FRET/MOA assay; class symbols; read-out: KRAS G12D FRET data IC50
Outline: as §1

Chain of NRAS WT (P01111 whole entry): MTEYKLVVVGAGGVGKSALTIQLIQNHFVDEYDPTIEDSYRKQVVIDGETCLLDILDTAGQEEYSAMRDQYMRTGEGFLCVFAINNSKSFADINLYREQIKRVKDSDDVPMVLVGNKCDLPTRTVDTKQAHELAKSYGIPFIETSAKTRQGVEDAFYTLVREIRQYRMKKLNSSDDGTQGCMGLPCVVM
Chain of NRAS WT (P62937 whole entry): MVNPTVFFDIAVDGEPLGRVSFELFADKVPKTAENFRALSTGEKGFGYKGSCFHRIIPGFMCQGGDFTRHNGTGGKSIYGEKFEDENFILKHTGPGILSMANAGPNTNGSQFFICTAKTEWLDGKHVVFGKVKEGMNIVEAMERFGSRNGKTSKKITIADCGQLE
Chain of KRAS Q61H (P01116-2 other isoform, or with tags, fused parts or gaps Q61H): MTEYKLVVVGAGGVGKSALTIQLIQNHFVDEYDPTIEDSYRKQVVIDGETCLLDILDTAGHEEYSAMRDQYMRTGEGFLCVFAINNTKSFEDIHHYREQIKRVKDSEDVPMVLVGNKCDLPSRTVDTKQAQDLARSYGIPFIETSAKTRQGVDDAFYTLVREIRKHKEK
Chain of KRAS Q61H (P62937 whole entry): as the sequence (P62937 whole entry) above
Chain of KRAS WT (P01116-2 other isoform, or with tags, fused parts or gaps): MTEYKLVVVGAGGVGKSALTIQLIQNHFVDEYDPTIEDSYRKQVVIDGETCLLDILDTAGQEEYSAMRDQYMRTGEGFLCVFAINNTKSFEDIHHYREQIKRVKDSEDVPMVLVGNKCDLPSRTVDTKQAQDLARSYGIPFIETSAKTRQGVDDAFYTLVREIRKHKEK
Chain of KRAS WT (P62937 whole entry): as the sequence (P62937 whole entry) above
Chain of K-Ras G12C (P01116-2 other isoform, or with tags, fused parts or gaps G12C): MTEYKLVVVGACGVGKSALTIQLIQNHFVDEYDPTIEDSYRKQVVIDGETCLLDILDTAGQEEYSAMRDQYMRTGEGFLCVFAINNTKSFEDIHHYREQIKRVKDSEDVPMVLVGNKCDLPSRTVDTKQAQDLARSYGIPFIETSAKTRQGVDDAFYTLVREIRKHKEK
Chain of K-Ras G12C (P62937 whole entry): as the sequence (P62937 whole entry) above
Chain of KRAS G12V (P01116-2 other isoform, or with tags, fused parts or gaps G12V): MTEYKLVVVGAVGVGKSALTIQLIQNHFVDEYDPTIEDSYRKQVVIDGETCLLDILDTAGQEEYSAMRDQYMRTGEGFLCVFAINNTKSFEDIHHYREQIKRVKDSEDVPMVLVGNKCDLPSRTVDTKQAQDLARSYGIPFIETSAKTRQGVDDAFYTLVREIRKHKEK
Chain of KRAS G12V (P62937 whole entry): as the sequence (P62937 whole entry) above
Chain of KRAS G12D (P01116-2 other isoform, or with tags, fused parts or gaps G12D): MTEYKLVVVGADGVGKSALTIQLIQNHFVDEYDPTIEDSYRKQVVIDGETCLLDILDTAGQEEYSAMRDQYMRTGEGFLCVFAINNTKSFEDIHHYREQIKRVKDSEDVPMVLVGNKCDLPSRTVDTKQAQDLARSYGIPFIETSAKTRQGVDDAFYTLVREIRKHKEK
Chain of KRAS G12D (P62937 whole entry): as the sequence (P62937 whole entry) above
Chain of KRAS G13D (P01116-2 other isoform, or with tags, fused parts or gaps G13D): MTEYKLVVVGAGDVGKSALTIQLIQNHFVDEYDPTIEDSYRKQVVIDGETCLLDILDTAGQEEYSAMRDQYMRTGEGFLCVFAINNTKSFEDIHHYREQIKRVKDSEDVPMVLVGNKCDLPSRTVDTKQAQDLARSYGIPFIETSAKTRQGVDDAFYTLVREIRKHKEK
Chain of KRAS G13D (P62937 whole entry): as the sequence (P62937 whole entry) above
Chain of KRAS G12S (P01116-2 other isoform, or with tags, fused parts or gaps G12S): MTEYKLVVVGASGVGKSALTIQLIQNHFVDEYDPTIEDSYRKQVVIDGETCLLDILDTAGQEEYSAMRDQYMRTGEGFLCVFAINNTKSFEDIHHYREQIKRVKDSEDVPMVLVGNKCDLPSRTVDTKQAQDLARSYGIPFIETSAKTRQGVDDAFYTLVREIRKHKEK
Chain of KRAS G12S (P62937 whole entry): as the sequence (P62937 whole entry) above
Chain of NRAS Q61R (P01111 whole entry Q61R): as the sequence (P01111 whole entry) above, with Q61R counted along it
Chain of NRAS Q61R (P62937 whole entry): as the sequence (P62937 whole entry) above
Chain of NRAS G12C (P01111 whole entry G12C): as the sequence (P01111 whole entry) above, with G12C counted along it
Chain of NRAS G12C (P62937 whole entry): as the sequence (P62937 whole entry) above
Chain of K-Ras G13C (P01116-2 other isoform, or with tags, fused parts or gaps G13C): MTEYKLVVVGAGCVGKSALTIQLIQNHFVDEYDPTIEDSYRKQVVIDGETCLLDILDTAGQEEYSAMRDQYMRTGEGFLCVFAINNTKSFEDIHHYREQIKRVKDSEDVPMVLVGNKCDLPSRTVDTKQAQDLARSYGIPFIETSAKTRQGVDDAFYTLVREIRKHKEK
Chain of K-Ras G13C (P62937 whole entry): as the sequence (P62937 whole entry) above

C=CC(=O)N1CC[C@H](C(=O)N(C)[C@H](C(=O)N[C@H]2Cc3cccc(c3)-c3ccc4c(c3)c(c(-c3cccnc3[C@H](C)OC)n4CC)CC(C)(C)COC(=O)[C@@H]3CCCN(N3)C2=O)C(C)(C)F)C1 (atropisomer, axis not shown) [Example A693]
IC50 (KRAS G12V): 1000 to 10000 nM
IC50 (KRAS G13D): 1000 to 10000 nM
IC50 (K-Ras G13C): 1000 to 10000 nM
IC50 (NCI-H358 (K-Ras G12C)): 100 to 1000 nM
IC50 (KRAS WT): 1000 to 10000 nM
IC50 (NRAS G12C): 100 to 1000 nM
IC50 (KRAS G12S): 1000 to 10000 nM
IC50 (KRAS Q61H): 1000 to 10000 nM
IC50 (K-Ras G12C): 100 to 1000 nM
IC50 (NRAS Q61R): 1000 to 10000 nM
IC50 (NRAS WT): 1000 to 10000 nM
IC50 (KRAS G12D): > 10000 nM

C=CC(=O)N1CCC2(CCN(C(=O)N(C)[C@H](C(=O)N[C@H]3Cc4nc(cs4)-c4ccc5c(c4)c(c(-c4cccnc4[C@H](C)OC)n5CC)CC(C)(C)COC(=O)[C@@H]4CCCN(N4)C3=O)C(C)C)CC2)C1 (atropisomer, axis not shown) [Example A698]
IC50 (KRAS G12V): 100 to 1000 nM
IC50 (KRAS G13D): 100 to 1000 nM
IC50 (K-Ras G13C): 10 to 100 nM
IC50 (NCI-H358 (K-Ras G12C)): 10 to 100 nM
IC50 (KRAS WT): 100 to 1000 nM
IC50 (NRAS G12C): 10 to 100 nM
IC50 (KRAS G12S): 100 to 1000 nM
IC50 (KRAS Q61H): 10 to 100 nM
IC50 (K-Ras G12C): 10 to 100 nM
IC50 (NRAS Q61R): 100 to 1000 nM
IC50 (NRAS WT): 100 to 1000 nM
IC50 (KRAS G12D): 100 to 1000 nM

CCn1c(-c2cccnc2[C@H](C)OC)c2c3cc(ccc31)-c1csc(n1)C[C@H](NC(=O)[C@H](C(C)C)N(C)C(=O)N1CCN(C(=O)/C=C/CN(C)C)C3(CC3)C1)C(=O)N1CCC[C@H](N1)C(=O)OCC(C)(C)C2 (atropisomer, axis not shown) [Example A701]
IC50 (KRAS G12V): 100 to 1000 nM
IC50 (KRAS G13D): 100 to 1000 nM
IC50 (K-Ras G13C): 100 to 1000 nM
IC50 (NCI-H358 (K-Ras G12C)): 10 to 100 nM
IC50 (KRAS WT): 100 to 1000 nM
IC50 (NRAS G12C): 10 to 100 nM
IC50 (KRAS G12S): 100 to 1000 nM
IC50 (KRAS Q61H): 10 to 100 nM
IC50 (K-Ras G12C): 10 to 100 nM
IC50 (NRAS Q61R): 100 to 1000 nM
IC50 (NRAS WT): 100 to 1000 nM
IC50 (KRAS G12D): 100 to 1000 nM

C=CC(=O)N1CCC2(CC1)CN(C(=O)N(C)[C@H](C(=O)N[C@H]1Cc3nc(cs3)-c3ccc4c(c3)c(c(-c3cccnc3[C@H](C)OC)n4CC)CC(C)(C)COC(=O)[C@@H]3CCCN(N3)C1=O)C(C)C)C2 (atropisomer, axis not shown) [Example A702]
IC50 (KRAS G12V): 100 to 1000 nM
IC50 (KRAS G13D): 1000 to 10000 nM
IC50 (K-Ras G13C): 100 to 1000 nM
IC50 (NCI-H358 (K-Ras G12C)): 10 to 100 nM
IC50 (KRAS WT): 100 to 1000 nM
IC50 (NRAS G12C): 100 to 1000 nM
IC50 (KRAS G12S): 100 to 1000 nM
IC50 (KRAS Q61H): 10 to 100 nM
IC50 (K-Ras G12C): 100 to 1000 nM
IC50 (NRAS Q61R): 100 to 1000 nM
IC50 (NRAS WT): 100 to 1000 nM
IC50 (KRAS G12D): 1000 to 10000 nM
